Molecules are shown by their SMILES.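 Method: 48-hour compound exposure of cells in 96-well plates, five concentrations, linear interpolation of endpoints. GI50: concentration for 50% inhibition of growth. TGI marks complete inhibition of growth.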

Some test systems named below: NCI-H226 lung; SK-MEL-28 melanoma; IGROV1 ovarian; LOX IMVI melanoma; 786-0 renal; HT29 colon; OVCAR-4 ovarian; SNB-75 CNS; ACHN renal; SF-268 CNS.
What all share (experiment): growth of human tumour cells (NCI), 48 h

As for `COc1ccc(Nc2ccnc(NCCNc3ccnc4cc(Cl)ccc34)n2)cc1`, the GI50 in the assay with NCI-H226 lung is 7.29 µM; in the assay with SK-MEL-28 melanoma it was 1.65 µM; in the assay on IGROV1 ovarian, 1.99 µM; in the assay with LOX IMVI melanoma it was 1.44 µM; in the assay on 786-0 renal, 1.87 µM; in the assay on HT29 colon it was 0.546 µM. Further, the GI50 in the assay with OVCAR-4 ovarian is 1.45 µM; with SNB-75 CNS, 1.17 µM; in the assay on ACHN renal it was 2.27 µM; in the assay with SF-268 CNS it was 3.65 µM. Further, the TGI with NCI-H226 lung was found to be 21.1 µM; with SK-MEL-28 melanoma it was 3.35 µM; with IGROV1 ovarian it was 11 µM; in the assay on LOX IMVI melanoma, 2.96 µM; in the assay with 786-0 renal, 4.33 µM; in the assay on HT29 colon it was 8.28 µM. Further, the TGI is 13.8 µM in the assay on OVCAR-4 ovarian, 2.52 µM with SNB-75 CNS, 6.06 µM with ACHN renal and 15.6 µM in the assay with SF-268 CNS.

As for `CC/C=C\C/C=C\C[C@H](O)C/C=C1/C(=O)C=C[C@H]1C/C=C\CCC(=O)OC`, the GI50 with NCI-H226 lung is 2.32 µM; in the assay with SK-MEL-28 melanoma it was 2.85 µM; in the assay with IGROV1 ovarian it was > 8.25 µM; in the assay on LOX IMVI melanoma, 1.36 µM; in the assay on 786-0 renal it was 3.53 µM; in the assay on HT29 colon it was 2.68 µM. Besides, the GI50 is > 8.25 µM in the assay on OVCAR-4 ovarian, > 8.25 µM in the assay on SNB-75 CNS, 3.06 µM in the assay on ACHN renal and 3.04 µM with SF-268 CNS. The TGI in the assay on NCI-H226 lung is > 8.25 µM; in the assay with SK-MEL-28 melanoma, > 8.25 µM; in the assay with IGROV1 ovarian it was > 8.25 µM; with LOX IMVI melanoma, 2.85 µM; in the assay on 786-0 renal it was > 8.25 µM; with HT29 colon, 6.79 µM. The TGI in the assay on OVCAR-4 ovarian, with SNB-75 CNS, in the assay with ACHN renal and in the assay with SF-268 CNS was > 8.25 µM throughout.

Consider `CN(C)/C=C/c1nnnn1-c1ccc(Cl)cc1`, for which the GI50 in the assay with NCI-H226 lung was 15.6 µM; in the assay with SK-MEL-28 melanoma, 30.2 µM; in the assay on IGROV1 ovarian, 14 µM; in the assay with LOX IMVI melanoma, 21.7 µM; with 786-0 renal, 14.8 µM; in the assay on HT29 colon, 20.2 µM. Also, the GI50 in the assay on OVCAR-4 ovarian is 28.2 µM; in the assay on SNB-75 CNS, 25.1 µM; in the assay with ACHN renal, 24.7 µM; in the assay on SF-268 CNS, 3.01 µM. Moreover, the TGI with NCI-H226 lung was 44.3 µM; in the assay on SK-MEL-28 melanoma, > 100 µM; with IGROV1 ovarian, > 100 µM; in the assay with LOX IMVI melanoma, > 100 µM; with 786-0 renal, 56.3 µM; in the assay on HT29 colon, 45 µM. The TGI with OVCAR-4 ovarian is 80.4 µM; in the assay on SNB-75 CNS, > 100 µM; in the assay on ACHN renal it was > 100 µM; with SF-268 CNS, 19.8 µM.

`Nc1nc2c(c3ncccc13)C(c1ccc(Cl)c(Cl)c1)Cc1ncccc1-2` (stereo not given): the GI50 in the assay with NCI-H226 lung was 16.6 µM; with SK-MEL-28 melanoma, 4.07 µM; in the assay on IGROV1 ovarian, 7.83 µM; with LOX IMVI melanoma it was 4.4 µM; in the assay with 786-0 renal, 3.49 µM; in the assay with HT29 colon it was 3.22 µM. Further, the GI50 in the assay with OVCAR-4 ovarian was 5.76 µM; with SNB-75 CNS it was 1.85 µM; in the assay on ACHN renal, 4.55 µM; in the assay on SF-268 CNS, 5.14 µM. In addition, the TGI with NCI-H226 lung was determined as 41.5 µM; in the assay with SK-MEL-28 melanoma, 13.9 µM; with IGROV1 ovarian it was 28.1 µM; in the assay with LOX IMVI melanoma it was 16.2 µM; in the assay with 786-0 renal it was 13.4 µM; in the assay with HT29 colon, 11.9 µM. Further, the TGI came out at 18.6 µM with OVCAR-4 ovarian, 6.6 µM in the assay with SNB-75 CNS, 16 µM with ACHN renal and 23.4 µM in the assay with SF-268 CNS.

Take `COc1cc([C@@H]2c3cc4c(cc3C(Br)[C@H]3COC(=O)[C@H]23)OCO4)cc(OC)c1OC` (stereo not given in full): the GI50 was 0.721 µM with NCI-H226 lung; 53.5 µM in the assay on SK-MEL-28 melanoma; 0.291 µM in the assay on IGROV1 ovarian; 0.264 µM with LOX IMVI melanoma; 0.307 µM with 786-0 renal; 0.289 µM in the assay with HT29 colon. The GI50 was 0.541 µM with OVCAR-4 ovarian, 0.271 µM with SNB-75 CNS, 0.241 µM in the assay on ACHN renal and 0.399 µM with SF-268 CNS. For the same molecule, the TGI in the assay on NCI-H226 lung is > 100 µM; in the assay with SK-MEL-28 melanoma it was > 100 µM; in the assay on IGROV1 ovarian, > 65.9 µM; in the assay with LOX IMVI melanoma, > 100 µM; with 786-0 renal it was 33.8 µM; in the assay on HT29 colon, 2.85 µM. The TGI in the assay on OVCAR-4 ovarian, in the assay with SNB-75 CNS, in the assay on ACHN renal and in the assay with SF-268 CNS was > 100 µM each time.

On to `CCN(CC)CC(=O)/C=C/c1ccc(C)cc1`, for which the TGI in the assay with NCI-H226 lung came to 53.8 µM; in the assay with SK-MEL-28 melanoma, 43 µM; with IGROV1 ovarian, 40.4 µM; in the assay with LOX IMVI melanoma, 34.4 µM; with 786-0 renal, 34.4 µM; in the assay with HT29 colon, 45.1 µM. In addition, the TGI in the assay with OVCAR-4 ovarian amounted to 29.3 µM; with SNB-75 CNS, 55.1 µM; in the assay on ACHN renal it was 35.1 µM; in the assay on SF-268 CNS, 54.8 µM.

With `Cc1ccccc1S(=O)(=O)N1[C@H](c2ccc(Cl)cc2)C(C(=O)N[C@@H](Cc2ccccc2)C(N)=O)=C[C@@H]1C(C)(C)C`, the GI50 in the assay on NCI-H226 lung was 7.05 µM; in the assay on SK-MEL-28 melanoma, 5.34 µM; with IGROV1 ovarian, 9.57 µM; in the assay on LOX IMVI melanoma, 6.98 µM; in the assay on 786-0 renal, 9.46 µM; in the assay on HT29 colon, 3.49 µM. Besides, the GI50 in the assay on OVCAR-4 ovarian is 6.25 µM; with SNB-75 CNS, 4.85 µM; in the assay on ACHN renal, 2.95 µM; with SF-268 CNS it was 6.56 µM. For the same molecule, the TGI was 16.1 µM in the assay on NCI-H226 lung; 12 µM in the assay with SK-MEL-28 melanoma; 23.1 µM in the assay with IGROV1 ovarian; 14 µM in the assay with LOX IMVI melanoma; 23.9 µM in the assay on 786-0 renal; 10 µM in the assay with HT29 colon. The TGI in the assay on OVCAR-4 ovarian is 13.4 µM; in the assay on SNB-75 CNS, 12 µM; with ACHN renal it was 9.83 µM; with SF-268 CNS it was 16.4 µM.

For the molecule `O=[N+]([O-])c1cc(O)c(O)cc1-c1cn2ccsc2n1`, the GI50 in the assay on NCI-H226 lung was 76.7 µM; in the assay on SK-MEL-28 melanoma it was 55.5 µM; with IGROV1 ovarian, 32.4 µM; with LOX IMVI melanoma, 52 µM; with 786-0 renal it was 31 µM; with HT29 colon it was 28.7 µM. In addition, the GI50 in the assay with OVCAR-4 ovarian was 69.7 µM; in the assay on SNB-75 CNS, > 100 µM; in the assay on ACHN renal, 42.6 µM; in the assay with SF-268 CNS it was 66.1 µM. For the same molecule, the TGI in the assay on NCI-H226 lung, in the assay with SK-MEL-28 melanoma, in the assay on IGROV1 ovarian, in the assay with LOX IMVI melanoma, in the assay with 786-0 renal and with HT29 colon was > 100 µM each time. For the same molecule, the TGI in the assay with OVCAR-4 ovarian, with SNB-75 CNS, with ACHN renal and in the assay with SF-268 CNS was > 100 µM each time.

Take `Cc1ccc2c[c]1[Hg][CH2]COS2(=O)=O`: the GI50 in the assay with NCI-H226 lung was 19.8 µM; in the assay on SK-MEL-28 melanoma, 16.4 µM; in the assay with IGROV1 ovarian, 5.3 µM; in the assay on LOX IMVI melanoma it was 18.5 µM; with 786-0 renal, 18.1 µM; in the assay on HT29 colon, 17.9 µM. Further, the GI50 with OVCAR-4 ovarian is 11.3 µM; with SNB-75 CNS it was > 100 µM; in the assay on ACHN renal, 16.2 µM; in the assay with SF-268 CNS, 18 µM. Besides, the TGI in the assay on NCI-H226 lung was determined as 43.5 µM; in the assay with SK-MEL-28 melanoma it was 29.9 µM; in the assay with IGROV1 ovarian it was 20.7 µM; with LOX IMVI melanoma, 36.4 µM; with 786-0 renal, 32 µM; in the assay on HT29 colon, 31.8 µM. Further, the TGI in the assay on OVCAR-4 ovarian was 23.4 µM; in the assay with SNB-75 CNS it was > 100 µM; in the assay on ACHN renal, 29.7 µM; with SF-268 CNS it was 32.4 µM.

Regarding `C=C(C)C(=O)OC1CC2(C)OC2CC(OC(C)=O)/C(C)=C/C2OC(=O)C(=C)C21` (stereo not given), the TGI turned out to be 48 µM in the assay on NCI-H226 lung; 1.94 µM in the assay with SK-MEL-28 melanoma; 18.6 µM in the assay on IGROV1 ovarian; 7.67 µM with LOX IMVI melanoma; 6.37 µM in the assay with 786-0 renal; 6.98 µM in the assay on HT29 colon. Also, the TGI is 23.7 µM with OVCAR-4 ovarian, 42.3 µM in the assay with SNB-75 CNS, 3.34 µM in the assay with ACHN renal and 15.3 µM in the assay on SF-268 CNS.

For the molecule `COc1ccc(C(O)c2cc3c(N)c(C(=O)Nc4cccc(Cl)c4C)sc3nc2C)cc1` (stereo not given), the GI50 is 1.04 µM in the assay with NCI-H226 lung; 0.854 µM in the assay with SK-MEL-28 melanoma; 0.687 µM in the assay on IGROV1 ovarian; 0.838 µM in the assay with LOX IMVI melanoma; 0.786 µM in the assay with 786-0 renal; 0.768 µM in the assay with HT29 colon. Besides, the GI50 in the assay on OVCAR-4 ovarian is 0.782 µM; with SNB-75 CNS, 0.637 µM; in the assay with ACHN renal, 0.877 µM; with SF-268 CNS it was 0.808 µM. In addition, the TGI in the assay on NCI-H226 lung turned out to be 3.15 µM; in the assay with SK-MEL-28 melanoma, 1.58 µM; with IGROV1 ovarian, 1.44 µM; in the assay on LOX IMVI melanoma, 1.55 µM; with 786-0 renal, 1.53 µM; in the assay on HT29 colon, 1.72 µM. Also, the TGI stood at 2 µM in the assay on OVCAR-4 ovarian, 1.34 µM with SNB-75 CNS, 1.63 µM in the assay on ACHN renal and 1.68 µM with SF-268 CNS.
